Key:
Settings in all cases: 48 h
CU-ACC1 [1] = assay: AC50 viability; higher = less potent
Procedure, shortened: (§1)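 Three adrenocortical carcinoma cell lines were exposed for 48 h to library compounds at 11 concentrations in 1,536-well plates, then read by CellTiter-Glo luminescence. Signals were scaled per plate against vehicle and empty-well controls. From fitted concentration-response curves of inhibitory or non-responding classes alone, AC50 and area under the curve were obtained.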

CU-ACC2 [2] = assay: AC50 viability; higher = less potent
Procedure, shortened: as §1

NCI-H295R [3] = assay: AC50 viability; higher = less potent
Procedure, shortened: as §1

CU-ACC1 [4] = assay: area under concentration-response curve (viability) (AUC (a.u.)); higher = less active
Procedure, shortened: as §1

CU-ACC2 [5] = assay: as above
Procedure, shortened: as §1

NCI-H295R [6] = assay: as above
Procedure, shortened: as §1

Structure (SMILES)	AC50 viability (CU-ACC1 [1]) [µM]	AC50 viability (CU-ACC2 [2]) [µM]	AC50 viability (NCI-H295R [3]) [µM]	area under concentration-response curve (CU-ACC1 [4])	area under concentration-response curve (CU-ACC2 [5])	area under concentration-response curve (NCI-H295R [6])
COC1=CC2=NC=CC(=C2C=C1)OC3=CN=C(NC(=O)C/4=C(C)/N(CC(C)(C)O)N(C4=O)C5=CC=CC=C5)C=C3	23.5	18.6	14.8	354	350	369
C=CC(=O)Nc1cccc(Oc2nc(Nc3ccc(N4CCN(C)CC4)cc3)ncc2Cl)c1	8.33	9.34	5.9	428	402	431
ClC1=CC\2=C(NC(=O)\C(=C2N[C@@H]3CN4CCC3CC4)C5=NC6=C([NH]5)C=CC=C6)C=C1	16.6	5.25	0.118	404	365	404
C=CC(=O)Nc1cccc(Nc2nc(Nc3ccc(Oc4ccnc(C(=O)NC)c4)cc3)ncc2F)c1	29.5	23.5	16.6	464	596	467
C/C=C1\NC(=O)[C@H]2CSSCC/C=C\[C@H](CC(=O)N[C@H](C(C)C)C(=O)N2)OC(=O)[C@H](C(C)C)NC1=O	0.00742	0.0235	0.118	235	224	293
CC(=O)c1cc2c(o1)C(=O)c1ccccc1C2=O	0.263	1.66	0.934	270	377	351
OCCNC1CCCc2c1[nH]c1ccc(-c3ccccc3)cc21 (configuration not stated)	20.9	23.5	10.5	462	526	456
CC(O)(C#Cc1ccc2c(c1)N(c1nc(N)ncc1Cl)CC2)c1nccs1 (configuration not stated)	14.8	18.6	16.6	494	560	507
C=CC(=O)Nc1cccc(Nc2nc(Nc3ccc(N4CCN(C(C)=O)CC4)cc3OC)ncc2C(F)(F)F)c1	4.68	3.72	5.25	335	394	362
CNC(=O)c1ccc(Nc2ncc(C(F)(F)F)c(NCc3nccnc3N(C)[S+](C)(=O)[O-])n2)cc1	3.32	1.86	3.32	354	336	353
C[C@@H]1CN[C@H]2[C@@H](C)[C@@]3(CC[C@H]4[C@@H]5CC[C@@H]6C[C@@H](CC[C@]6(C)[C@H]5C\C4=C(C)\C3)N[S+](C)([O-])=O)O[C@@H]2C1	16.6	20.9	14.8	467	539	504
CC(=O)O/N=C1\C(=O)N(Cc2cc(Cl)ccc2Cl)c2ccc(Cl)cc21	2.09	7.42	13.2	448	382	504
COc1cc(C(=O)N2CCC(N3CCN(C)CC3)CC2)ccc1Nc1ncc2c(n1)N(C)c1ccccc1C(=O)N2C	26.3	20.9	16.6	377	423	389
COCCOC(=O)N1CCN([S+](=O)([O-])c2cc(F)c(Oc3ccc(Cl)cc3)c(F)c2)C(C(=O)NO)C1 (configuration not stated)	13.2	10.5	20.9	471	428	507
COC[C@H](NC(=O)c1cnc(C)s1)C(=O)N[C@@H](COC)C(=O)N[C@@H](Cc1ccccc1)C(=O)[C@@]1(C)CO1	0.166	0.0833	0.0661	220	255	276
CCn1nnc2c(N3CCOCC3)nc(-c3ccc(NC(=O)Nc4ccc(C(=O)N5CCN(C)CC5)cc4)cc3)nc21	1.18	0.468	5.9	357	434	453
CN1CCC(CNc2ccc3ncc(-c4cccc(OC(F)(F)F)c4)n3n2)CC1	7.42	13.2	9.34	413	460	416
CC1(C)CC(=O)c2c(C(F)(F)F)nn(-c3ccc(C(N)=O)c(NC4CCC(O)CC4)c3)c2C1 (configuration not stated)	1.05	0.295	0.833	359	416	455
COc1cc2ncnc(Nc3ccc(F)c(Cl)c3)c2cc1NC(=O)/C=C/CN1CCCCC1	10.5	8.33	6.61	414	493	459
CN1CCN(c2cc(C(=O)Nc3ccc4c(c3)-c3c(c(C(N)=O)nn3-c3ccc(F)cc3)CC4)c(Cl)cn2)CC1	9.34	20.9	10.5	427	521	480
COC1=C(OC)C=C\2C(=C1)C(=O)N(CCCNCCO)\C3=C2C(=O)C4=C3C=C5OCOC5=C4	5.9	4.17	7.42	364	396	407
COC(=O)c1ccc2c(c1)NC(=O)/C2=C(\Nc1ccc(N(C)C(=O)CN2CCN(C)CC2)cc1)c1ccccc1	20.9	7.42	8.33	504	528	483
C[C@@]12OC(=O)[C@@]1(NC(=O)[C@@H]2CCCl)[C@@H](O)[C@H]\3CCC\C=C3	0.833	1.05	0.833	305	437	435
NC(CO)(CO)CCc1ccc(Sc2cccc(OCc3ccccc3)c2)cc1Cl	14.8	18.6	10.5	423	491	449
O=C(Nc1c[nH]nc1-c1nc2cc(CN3CCOCC3)ccc2[nH]1)NC1CC1	8.33	2.63	16.6	423	386	350
NC1(CCC1)C2=CC=C(C=C2)C3=C(C=C/4C(=N3)\C=C/N5C(=O)N\N=C45)C6=CC=CC=C6	9.34	18.6	16.6	442	523	404

Structure (SMILES)	AC50 viability (CU-ACC1 [1]) [µM]	AC50 viability (CU-ACC2 [2]) [µM]	AC50 viability (NCI-H295R [3]) [µM]	area under concentration-response curve (CU-ACC1 [4])	area under concentration-response curve (CU-ACC2 [5])	area under concentration-response curve (NCI-H295R [6])
NC1=C(Cl)C(=CC=N1)OC2=C(F)C=C(NC(=O)\C3=C\N\C=C(C3=O)\C4=CC=C(F)C=C4)C=C2	14.8	16.6	13.2	437	502	490
COc1cc2c(Nc3ccc(Cl)c(Cl)c3F)ncnc2cc1OC[C@@H]1C[C@@H]2CN(C)C[C@@H]2C1	16.6	10.5	16.6	397	515	483
CC(C)[C@]12O[C@H]1[C@@H]3O[C@@]34[C@@]5(C)CC\C6=C(COC6=O)/[C@@H]5C[C@@H]7O[C@]47C2=O	0.0417	0.0525	0.833	245	270	329
CC1=NN=C(C[C@@H]2\C=C(C3=CC=C(Cl)C=C3)/C4=CC=CC=C4[N]5C(=NN=C25)C)O1	5.9	3.32	5.25	433	447	368
C[C@@H]1CN(CC(=O)N2CC(C)(C)c3ncc(Cc4ccc(F)cc4)cc32)[C@@H](CN2CCOC[C@H]2C)CN1	18.6	1.32	20.9	449	451	462
Cc1n[nH]c2ccc(-c3cncc(OC[C@@H](N)Cc4ccccc4)c3)cc12	1.48	1.18	2.35	305	342	294
Cc1ccc([N+](=O)[O-])cc1[S+](=O)([O-])N(C)/N=C/c1cnc2ccc(Br)cn12	0.417	0.166	0.417	226	332	346
C[C@@]12C(=O)OC(=O)[C@]1(C)[C@H]1CC[C@@H]2O1	7.42	10.5	4.68	442	431	434
CCc1cc(-c2n[nH]c(C)c2-c2ccc3c(c2)OCCO3)c(O)cc1O	23.5	23.5	20.9	529	611	565
COc1cc(C(=O)NC2CCN(C)CC2)c(F)cc1Nc1ncc2c(n1)N(C1CCCC1)CC(F)(F)C(=O)N2C	16.6	14.8	4.68	412	393	400
CN(Cc1ccc(/C=C/C(=O)NO)cc1)CC12CC3CC(CC(C3)C1)C2	1.05	1.05	1.66	303	408	365
Cc1ccc([S+](=O)([O-])Nc2cc(C(F)(F)F)ccc2C(=O)Nc2nc(-c3ccccc3)cs2)cc1	10.5	8.33	8.33	436	499	479
C=C1CCC2[C@](C)(CO)C(O)CC[C@]2(C)C1C/C=C1/C(=O)OCC1O (some centres not stated)	18.6	11.8	20.9	472	504	445
COc1ccc(N2C(=O)N(c3c(C)cccc3Cl)Cc3cnc(Nc4ccc(C5CCN(C)CC5)cc4OC)nc32)nc1	18.6	18.6	14.8	451	511	490
COc1cccc2c1C(=O)c1c(O)c3c(c(O)c1C2=O)C[C@@](O)(C(=O)CO)CC3OC1CC(N2CCOC(OC)C2)C(O)C(C)O1 (some centres not stated)	0.0833	0.059	0.0833	284	302	282
CCOC(=O)CCNc1cc(N2CCc3ccccc3CC2)nc(-c2ccccn2)n1	3.32	16.6	3.72	384	534	444
CC/1=C(\O)C(=O)\C=C2/C1=C\C=C3/[C@@]2(C)CC[C@@]4(C)[C@@H]5C[C@@](C)(CC[C@]5(C)CC[C@]34C)C(O)=O	13.2	6.61	23.5	474	515	447
Cc1cccc(Nc2nc(N[C@@H]3CCCC[C@@H]3N)ncc2C(N)=O)c1	26.3	26.3	18.6	476	546	496
CCC(C1CCC(C)C(O1)C(C)C(O)C(C)C(=O)C(CC)C2OC\3(O[C@]4(CC[C@@](C)(O4)C5CC[C@@](O)(CC)C(C)O5)C(O)\C=C3)C(C)CC2C)C([O-])=O (some centres not stated)	5.25	5.9	8.33	291	473	456
CN(C)CCN(C)C(=O)c1ccc(NC(=O)Nc2ccc(-c3nc(N4CCOCC4)c4ccn(CC(F)(F)F)c4n3)cc2)cc1	4.68	3.72	5.9	307	307	354
CNCc1ccc(C)c(NC(=O)c2ccc(Nc3nc(-c4ccccc4)c4ccccc4n3)cc2)c1	16.6	23.5	18.6	471	575	521
Cc1c(CN2CCN([S+](C)(=O)[O-])CC2)sc2c(N3CCOCC3)nc(-c3cnc(N)nc3)nc12	0.525	0.468	1.18	282	403	333
CCc1cnn2c(NCc3ccc[n+]([O-])c3)cc(N3CCCC[C@H]3CCO)nc12	0.00263	0.0059	0.00417	177	167	158
COc1cc(N2CCC(N3CCN(C)CC3)CC2)ccc1Nc1ncc(Cl)c(Nc2ccccc2[S+](=O)([O-])C(C)C)n1	11.8	5.25	2.95	436	479	432
COc1nc(OCc2cccc(-c3ccccc3)c2C)ccc1CNCCNC(C)=O	11.8	16.6	5.9	390	379	412
OCCCNc1cc(-c2ccnc(Nc3cccc(Cl)c3)n2)ccn1	0.148	0.0934	0.263	275	307	339

— the supplement of paper PMC10949913
